Reference: ChEMBL document CHEMBL3525904, “Effect of structural variation on aldehyde oxidase-catalyzed oxidation of zoniporide” (Drug Metab Dispos, 2012)
One block for each molecule: values may come before it.

How the values were obtained:
Type in all cases: ADME, subcellular
[1] = target: T1, Aldehyde oxidase (Homo sapiens, UniProt Q06278); assay: Half life in human liver S9 fraction assessed as aldehyde oxidase-mediated 2-oxo-metabolite formation at 1 uM by spectrometry; details: s9, 1 µM
T1 sequence (Q06278 whole entry): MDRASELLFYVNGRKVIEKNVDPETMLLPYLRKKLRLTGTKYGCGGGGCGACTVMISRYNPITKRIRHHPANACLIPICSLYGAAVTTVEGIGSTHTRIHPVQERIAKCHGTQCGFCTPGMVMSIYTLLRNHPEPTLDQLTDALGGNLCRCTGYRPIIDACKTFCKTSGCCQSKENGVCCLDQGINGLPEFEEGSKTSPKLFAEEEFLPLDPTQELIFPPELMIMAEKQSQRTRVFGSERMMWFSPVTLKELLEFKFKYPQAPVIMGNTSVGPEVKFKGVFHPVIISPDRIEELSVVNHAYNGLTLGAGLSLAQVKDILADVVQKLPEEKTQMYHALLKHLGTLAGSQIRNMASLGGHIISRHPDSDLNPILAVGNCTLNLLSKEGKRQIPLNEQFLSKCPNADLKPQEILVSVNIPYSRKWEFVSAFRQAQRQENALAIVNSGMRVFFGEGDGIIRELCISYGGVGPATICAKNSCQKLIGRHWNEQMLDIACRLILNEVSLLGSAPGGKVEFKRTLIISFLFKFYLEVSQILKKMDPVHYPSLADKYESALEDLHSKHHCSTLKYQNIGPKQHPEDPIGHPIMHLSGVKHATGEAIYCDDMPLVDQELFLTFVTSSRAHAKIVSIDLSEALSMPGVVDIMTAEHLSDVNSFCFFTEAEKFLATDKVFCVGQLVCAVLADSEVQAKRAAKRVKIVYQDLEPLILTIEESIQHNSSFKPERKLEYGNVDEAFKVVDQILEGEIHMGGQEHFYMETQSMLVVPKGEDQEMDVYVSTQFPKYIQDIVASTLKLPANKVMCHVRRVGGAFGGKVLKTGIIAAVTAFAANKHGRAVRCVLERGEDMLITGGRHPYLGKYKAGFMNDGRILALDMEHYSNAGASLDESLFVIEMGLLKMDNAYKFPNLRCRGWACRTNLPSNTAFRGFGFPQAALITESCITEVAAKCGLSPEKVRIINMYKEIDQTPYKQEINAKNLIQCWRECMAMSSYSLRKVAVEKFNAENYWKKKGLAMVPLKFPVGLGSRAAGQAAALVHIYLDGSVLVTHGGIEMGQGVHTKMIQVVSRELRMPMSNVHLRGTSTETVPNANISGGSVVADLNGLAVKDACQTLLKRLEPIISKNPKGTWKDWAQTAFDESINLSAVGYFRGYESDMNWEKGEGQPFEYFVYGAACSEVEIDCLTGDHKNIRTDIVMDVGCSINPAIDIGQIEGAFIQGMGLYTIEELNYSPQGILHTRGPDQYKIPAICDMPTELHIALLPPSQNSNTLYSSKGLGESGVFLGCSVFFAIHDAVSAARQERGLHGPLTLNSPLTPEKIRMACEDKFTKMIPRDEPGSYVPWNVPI

[2] = target: T1, Aldehyde oxidase; assay: Drug metabolism in human liver S9 fraction assessed as aldehyde oxidase-mediated 2-oxo-metabolite formation at 10 uM by spectrometry; details: s9, 10 µM
[3] = target: T1, Aldehyde oxidase; assay: Drug level in human liver S9 fraction assessed as aldehyde oxidase-mediated compound formation treated with 10 uM N-carbamimidoyl-3-cyclopropyl-1-(quinolin-5-yl)-1H-pyrazole-4-carboxamideby spectrometry
[4] = target: T1, Aldehyde oxidase; assay: Drug level in human liver S9 fraction assessed as aldehyde oxidase-mediated compound formation treated with 10 uM 5-cyclopropyl-1-(quinolin-5-yl)-1H-pyrazole-4-carboxamide by spectrometry
[5] = target: T1, Aldehyde oxidase; assay: Drug level in human liver S9 fraction assessed as aldehyde oxidase-mediated compound formation treated with 10 uM N-carbamimidoyl-5-cyclopropyl-1-(6-methoxyquinolin-5-yl)-1H-pyrazole-4-carboxamide by spectrometry
[6] = target: T1, Aldehyde oxidase; assay: Drug level in human liver S9 fraction assessed as aldehyde oxidase-mediated compound formation treated with 10 uM 5-cyclopropyl-1-(quinolin-5-yl)-1H-pyrazole-4-carboxylic acid by spectrometry
[7] = target: T1, Aldehyde oxidase; assay: Drug level in human liver S9 fraction assessed as aldehyde oxidase-mediated compound formation treated with 10 uM 5-cyclopropyl-N,N-diethyl-1-(quinolin-5-yl)-1H-pyrazole-4-carboxamide by spectrometry
[8] = target: T1, Aldehyde oxidase; assay: Drug level in human liver S9 fraction assessed as aldehyde oxidase-mediated compound formation treated with 10 uM zoniporide by spectrometry
[9] = target: T1, Aldehyde oxidase; assay: Drug level in human liver S9 fraction assessed as aldehyde oxidase-mediated compound formation treated with 10 uM N-carbamimidoyl-5-methyl-1-(quinolin-5-yl)-1H-pyrazole-4-carboxamide by spectrometry
[10] = target: T1, Aldehyde oxidase; assay: Drug level in human liver S9 fraction assessed as aldehyde oxidase-mediated compound formation treated with 10 uM N-carbamimidoyl-5-isopropyl-1-(quinolin-5-yl)-1H-pyrazole-4-carboxamide by spectrometry
[11] = target: T1, Aldehyde oxidase; assay: Drug level in human liver S9 fraction assessed as aldehyde oxidase-mediated compound formation treated with 10 uM 5-butyl-N-carbamimidoyl-1-(quinolin-5-yl)-1H-pyrazole-4-carboxamide by spectrometry
[12] = target: T1, Aldehyde oxidase; assay: Drug level in human liver S9 fraction assessed as aldehyde oxidase-mediated compound formation treated with 10 uM N-carbamimidoyl-5-propyl-1-(quinolin-5-yl)-1H-pyrazole-4-carboxamide by spectrometry
[13] = target: T1, Aldehyde oxidase; assay: Drug level in human liver S9 fraction assessed as aldehyde oxidase-mediated compound formation treated with 10 uM N-carbamimidoyl-5-cyclopropyl-1-(6-methylquinolin-5-yl)-1H-pyrazole-4-carboxamide by spectrometry
[14] = target: T1, Aldehyde oxidase; assay: Drug level in human liver S9 fraction assessed as aldehyde oxidase-mediated compound formation treated with 10 uM N-carbamimidoyl-5-(methoxymethyl)-1-(quinolin-5-yl)-1H-pyrazole-4-carboxamide by spectrometry
[15] = target: T1, Aldehyde oxidase; assay: Drug level in human liver S9 fraction assessed as aldehyde oxidase-mediated compound formation treated with 10 uM N-carbamimidoyl-5-cyclopropyl-1-(6-hydroxyquinolin-5-yl)-1H-pyrazole-4-carboxamide by spectrometry
[16] = substrate: CC(C)c1c(C(=O)NC(=N)N)cnn1-c1cccc2ncccc12; assay: (§1) Drug metabolism in human liver S9 fraction assessed as aldehyde oxidase-mediated 2-oxo-metabolite formation by spectrometry
[17] = substrate: CCN(CC)C(=O)c1cnn(-c2cccc3ncccc23)c1C1CC1; assay: as §1
[18] = substrate: COCc1c(C(=O)NC(=N)N)cnn1-c1cccc2ncccc12; assay: as §1
[19] = substrate: N=C(N)NC(=O)c1cn(-c2cccc3ncccc23)nc1C1CC1; assay: as §1
[20] = substrate: N=C(N)NC(=O)c1cnn(-c2ccc3ncccc3c2)c1C1CC1; assay: as §1
[21] = substrate: N=C(N)NC(=O)c1cnn(-c2ccnc3ccccc23)c1C1CC1; assay: as §1

- t1/2 [1]: 41 min
- Drug metabolism [2]: metabolite_detected
Molecule: CCCc1c(C(=O)NC(=N)N)cnn1-c1cccc2ncccc12

- t1/2 [1]: 14 min
- Drug metabolism [2]: metabolite_detected
Molecule: N=C(N)NC(=O)c1cnn(-c2ccnc3ccccc23)c1C1CC1

- Drug metabolism [3]: metabolite_detected
Molecule: N=C(N)NC(=O)c1cn(-c2cccc3[nH]c(=O)ccc23)nc1C1CC1

- t1/2 [1]: 48 min
- Drug metabolism [2]: metabolite_detected
Molecule: CCCCc1c(C(=O)NC(=N)N)cnn1-c1cccc2ncccc12

- t1/2 [1]: 120 min
- Drug metabolism [2]: metabolite_detected
Molecule: Cc1ccc2ncccc2c1-n1ncc(C(=O)NC(=N)N)c1C1CC1

- Drug metabolism [4]: metabolite_detected
Molecule: NC(=O)c1cnn(-c2cccc3[nH]c(=O)ccc23)c1C1CC1

- Drug metabolism [2]: metabolite_not_detected
Molecule: N=C(N)NC(=O)c1cnn(-c2cccc3[nH]ncc23)c1C1CC1

- t1/2 [1]: 26 min
- Drug metabolism [2]: metabolite_detected
Molecule: N=C(N)NC(=O)c1cnn(-c2cccc3ncccc23)c1C1CC1 [ZONIPORIDE]

- Drug metabolism [5]: metabolite_detected
Molecule: COc1ccc2[nH]c(=O)ccc2c1-n1ncc(C(=O)NC(=N)N)c1C1CC1

- t1/2 [1]: < 5 min
- Drug metabolism [2]: metabolite_detected
Molecule: N=C(N)NC(=O)c1cnn(-c2ccc3ncccc3c2)c1C1CC1

- Drug metabolism [6]: metabolite_detected
Molecule: O=C(O)c1cnn(-c2cccc3[nH]c(=O)ccc23)c1C1CC1

- t1/2 [1]: 120 min
- Drug metabolism [2]: metabolite_detected
Molecule: N=C(N)NC(=O)c1cnn(-c2c(O)ccc3ncccc23)c1C1CC1

- Drug metabolism [7]: metabolite_detected
Molecule: CCN(CC)C(=O)c1cnn(-c2cccc3[nH]c(=O)ccc23)c1C1CC1

- Drug metabolism [8]: metabolite_detected
Molecule: N=C(N)NC(=O)c1cnn(-c2cccc3[nH]c(=O)ccc23)c1C1CC1

- Drug metabolism [9]: metabolite_detected
Molecule: Cc1c(C(=O)NC(=N)N)cnn1-c1cccc2[nH]c(=O)ccc12

- t1/2 [1]: 3.1 min
- Drug metabolism [2]: metabolite_detected
Molecule: N=C(N)NC(=O)c1cn(-c2cccc3ncccc23)nc1C1CC1

- Drug metabolism [10]: metabolite_detected
Molecule: CC(C)c1c(C(=O)NC(=N)N)cnn1-c1cccc2[nH]c(=O)ccc12

- Drug metabolism [11]: metabolite_detected
Molecule: CCCCc1c(C(=O)NC(=N)N)cnn1-c1cccc2[nH]c(=O)ccc12

- Drug metabolism [12]: metabolite_detected
Molecule: CCCc1c(C(=O)NC(=N)N)cnn1-c1cccc2[nH]c(=O)ccc12

- Drug metabolism [2]: metabolite_not_detected
Molecule: N=C(N)NC(=O)c1cnn(-c2cccc3[nH]ccc23)c1C1CC1

- Drug metabolism [13]: metabolite_detected
Molecule: Cc1ccc2[nH]c(=O)ccc2c1-n1ncc(C(=O)NC(=N)N)c1C1CC1

- t1/2 [1]: 110 min
- Drug metabolism [2]: metabolite_detected
Molecule: NC(=O)c1cnn(-c2cccc3ncccc23)c1C1CC1

- Drug metabolism [14]: metabolite_detected
Molecule: COCc1c(C(=O)NC(=N)N)cnn1-c1cccc2[nH]c(=O)ccc12

- t1/2 [1]: 120 min
- Drug metabolism [2]: metabolite_detected
Molecule: N=C(N)NC(=O)c1cnn(-c2cccc3[nH]cnc23)c1C1CC1

- t1/2 [1]: 120 min
- Drug metabolism [2]: metabolite_detected
Molecule: COc1ccc2ncccc2c1-n1ncc(C(=O)NC(=N)N)c1C1CC1

- t1/2 [1]: 33 min
- Drug metabolism [2]: metabolite_detected
Molecule: Cc1c(C(=O)N=C(N)N)cnn1-c1cccc2ncccc12

- t1/2 [1]: 37 min
- Drug metabolism [2]: metabolite_detected
Molecule: CCN(CC)C(=O)c1cnn(-c2cccc3ncccc23)c1C1CC1

- t1/2 [1]: 15 min
- Drug metabolism [2]: metabolite_detected
Molecule: CC(C)c1c(C(=O)NC(=N)N)cnn1-c1cccc2ncccc12

- t1/2 [1]: 120 min
- Drug metabolism [2]: metabolite_detected
Molecule: O=C(O)c1cnn(-c2cccc3ncccc23)c1C1CC1

- t1/2 [1]: 120 min
- Drug metabolism [2]: metabolite_detected
Molecule: COCc1c(C(=O)NC(=N)N)cnn1-c1cccc2ncccc12

- Drug metabolism [15]: metabolite_detected
Molecule: N=C(N)NC(=O)c1cnn(-c2c(O)ccc3[nH]c(=O)ccc23)c1C1CC1

B1: Aldehyde oxidase (Homo sapiens) (protein)
chain: T1 sequence (Q06278 whole entry)
- Km [16]: 2.2 µM
- Km [17]: 16 µM
- Km [18]: 9 µM
- Km [19]: 0.4 µM
- Km [20]: 1.2 µM
- Km [21]: 1.8 µM
